From patent US9938262B2, “Benzamides” (Merck Patent GmbH, priority 2011, dated 2018)

Molecular target: T1, FSHR (Homo sapiens, UniProt P23945)
T1 construct: expressed in transfected cells; host or cells: CHO (Cho-FSHR-LUC-1-1-43)
Experiment: EC50 of cyclic AMP production in CHO FSHR cells + EC20 FSH (Assay A)
Format: cell-based
Conditions: Table 1; for EC50: CHO FSHR cells + EC20 FSH, read-out: Assay A EC50 of cyclic AMP production; for activation at 5 µM: 1 h, effect relative to maximum response of the FSH standard
Description: Example 10: EC50 of Cyclic AMP Production in CHO FSHR Cells+EC20 FSH (Assay A)
2500 Cho-FSHR-LUC-1-1-43 cells were plated per well in 5 μl of phenol red free DMEM/F12+1% FBS. Cells were plated in 384 well, solid white low volume plates (Greiner 784075) by Multidrop. Cells were assayed by adding 100 μl of 2×EC20 FSH/IBMX in DMEM/F12+0.1% BSA) by Multidrop to 2 μl of test compound stamped in 384 well plates (compounds are diluted 1:50). The final FSH concentration was […], and the final IBMX concentration was 200 μM. The compound plate map was as follows: Column 1: 2 μl of DMSO; Column 2: 2 μl of DMSO; Columns 3-12 and 13-24: 2 μl of test compound, diluted 1:4 in 100% DMSO, or 2 μl of FSH, diluted 1:4 in DMEM/F12+0.1% BSA. The starting concentration for FSH was 50 nM (final concentration was 0.5 nM). […] 5 μl of compound+EC20 FSH mixture were transferred to cell plates (1:2 dilution into 5 μl of cell media) The plates were incubated at 37° C. for 1 h. 10 μl of mixed HTRF (CisBio #62AM4PEC) reagents were added per well and incubated at room temperature for 1 h. The plates were read on Envision using the cAMP HTRF—low volume 384 well protocol. The readout was the calculated fluorescence ratio (665 nm/620 nm). Values given in percent (%) indicate the percental effect (response) at a certain concentration of agonist relative to the maximum response of the FSH standard.

T1 sequence (P23945 18-695): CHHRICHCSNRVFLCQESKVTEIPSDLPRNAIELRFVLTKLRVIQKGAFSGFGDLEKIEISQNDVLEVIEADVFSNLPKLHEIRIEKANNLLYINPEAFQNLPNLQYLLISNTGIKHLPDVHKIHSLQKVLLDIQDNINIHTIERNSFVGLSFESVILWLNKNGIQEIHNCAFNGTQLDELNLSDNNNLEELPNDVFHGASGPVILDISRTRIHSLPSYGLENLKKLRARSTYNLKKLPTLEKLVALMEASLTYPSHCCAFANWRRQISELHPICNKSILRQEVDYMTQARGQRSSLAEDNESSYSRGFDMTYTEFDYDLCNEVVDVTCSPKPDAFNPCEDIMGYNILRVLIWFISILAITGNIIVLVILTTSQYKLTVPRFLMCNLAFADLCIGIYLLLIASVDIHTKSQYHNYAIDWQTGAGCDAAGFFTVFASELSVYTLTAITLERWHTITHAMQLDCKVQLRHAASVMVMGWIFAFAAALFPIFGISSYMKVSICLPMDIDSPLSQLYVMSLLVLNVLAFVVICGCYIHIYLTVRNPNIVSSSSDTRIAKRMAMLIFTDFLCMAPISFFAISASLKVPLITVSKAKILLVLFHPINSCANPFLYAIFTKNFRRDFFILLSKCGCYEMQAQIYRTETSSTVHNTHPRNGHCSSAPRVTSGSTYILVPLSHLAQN
T1 sequence (P01215 25-116 partner): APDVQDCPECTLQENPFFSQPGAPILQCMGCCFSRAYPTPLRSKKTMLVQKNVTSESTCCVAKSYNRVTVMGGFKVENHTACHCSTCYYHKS
T1 sequence (P01225 19-129 partner): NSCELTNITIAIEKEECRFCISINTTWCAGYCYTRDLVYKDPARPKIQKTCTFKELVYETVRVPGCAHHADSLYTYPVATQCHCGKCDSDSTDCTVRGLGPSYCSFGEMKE

| SMILES | EC50 [nM] | activation at 5 µM [%] |
| --- | --- | --- |
| Cc1ccccc1N1CCN(c2ccc(C(=O)NCCc3c[nH]c4ccccc34)cc2NC(=O)c2ccco2)CC1 [Compound 10, Furan-2-carboxylic acid [5-[2-(1H-indol-3-yl)-ethylcarbamoyl]-2-(4-o-tolyl-piperazin-1-yl)-phenyl]-amide] | – | 39 |
| Cc1ccccc1N1CCN(c2ccc(C(=O)N3CCN(C(=O)OC(C)(C)C)CC3)cc2NC(=O)c2ccco2)CC1 [Compound 12] | – | 7 |
| Cc1ccccc1N1CCN(c2ccc(C(=O)NCCCN3CCCC3=O)cc2NC(=O)c2ccc(-c3ccccc3)o2)CC1 [Compound 13] | – | 14 |
| Cc1ccccc1N1CCN(c2ccc(C(=O)N[C@@H]3CCCN(C(=O)OC(C)(C)C)C3)cc2NC(=O)c2ccco2)CC1 [Compound 21] | – | 22 |
| CC(=O)N1CCN(C(=O)c2ccc(N3CCN(c4ccccc4C)CC3)c(NC(=O)c3ccco3)c2)CC1 [Compound 23] | – | 4 |
| Cc1ccccc1N1CCN(c2ccc(C(=O)NCCCN3CCCC3=O)cc2NC(=O)c2cccnc2)CC1 [Compound 37] | – | 37 |
| Cc1ccccc1N1CCN(c2ccc(C(=O)NCCCN3CCCC3=O)cc2NC(=O)c2cccc(C(F)(F)F)c2)CC1 [Compound 39] | – | 15 |
| Cc1ccccc1N1CCN(c2ccc(C(=O)NCCCN3CCCC3=O)cc2NC(=O)c2ccc(C(F)(F)F)cc2)CC1 [Compound 40] | – | 40 |
| Cc1ccccc1N1CCN(c2ccc(C(=O)NCCCN3CCCC3=O)cc2NC(=O)c2ccc3ccccc3c2)CC1 [Compound 43] | – | 44 |
| Cc1ccccc1N1CCN(c2ccc(C(=O)NCCCN3CCCC3=O)cc2NC(=O)c2cccc3cccnc23)CC1 [Compound 44] | – | 44 |
| Cc1ccccc1N1CCN(c2ccc(C(=O)NCCCN3CCCC3=O)cc2NS(=O)(=O)c2ccco2)CC1 [Compound 46] | – | 10 |
| Cc1cc(C)c(C(=O)Nc2cc(C(=O)NCCCN3CCCC3=O)ccc2N2CCN(c3ccccc3C)CC2)o1 [Compound 51] | – | 39 |
| CCOC(=O)N1CCN(c2ccc(C(=O)NCCCN3CCCC3=O)cc2NC(=O)c2ccco2)CC1 [Compound 62, 4-{2-[(Furan-2-carbonyl)-amino]-4-[3-(2-oxo-pyrrolidin-1-yl)-propylcarbamoyl]-phenyl}-piperazine-1-carboxylic acid ethyl ester] | – | 42 |
| Cc1ccccc1N1CCN(c2ccc(C(=O)NCCN(C)C(=O)OC(C)(C)C)cc2NC(=O)c2ccco2)CC1 [Compound 64, {2-[3-[(Furan-2-carbonyl)-amino]-4-(4-o-tolyl-piperazin-1-yl)-benzoylamino]-ethyl}-methyl-carbamic acid tert-butyl ester] | – | 72 |
| Cc1ccccc1N1CCN(c2ccc(C(=O)NCCCN3CCCC3=O)cc2NC(=O)c2ccoc2C)CC1 [Compound 68] | 1000 to 10000 | – |
| Cc1ccccc1N1CCN(c2ccc(C(=O)NCCCN3CCCC3=O)cc2NC(=O)c2scnc2C)CC1 [Compound 70] | > 10000 | – |
| Cc1nc(C(F)(F)F)c(C(=O)Nc2cc(C(=O)NCCCN3CCCC3=O)ccc2N2CCN(c3ccccc3C)CC2)s1 [Compound 71] | 1000 to 10000 | – |
| Cc1ccccc1N1CCN(c2ccc(C(=O)NCCCN3CCCC3=O)cc2NC(=O)c2sc(Br)nc2C)CC1 [Compound 72] | > 10000 | – |
| Cc1nc(C(=O)Nc2cc(C(=O)NCCCN3CCCC3=O)ccc2N2CCN(c3ccccc3C)CC2)c(C(F)(F)F)o1 [Compound 76] | 1000 to 10000 | – |
| CCc1ocnc1C(=O)Nc1cc(C(=O)NCCCN2CCCC2=O)ccc1N1CCN(c2ccccc2C)CC1 [Compound 77] | 1000 to 10000 | – |
| Cc1ccccc1N1CCN(c2ccc(C(=O)NCCCN3CCCC3=O)cc2NC(=O)c2conc2C)CC1 [Compound 80] | – | 22 |

The next lines start with the values.

| EC50 [nM] | activation at 5 µM [%] | SMILES |
| --- | --- | --- |
| 100 to 1000 | – | Cc1cc(C(=O)Nc2cc(C(=O)NCCCN3CCCC3=O)ccc2N2CCN(c3ccccc3C)CC2)c(C(F)(F)F)o1 [Compound 1] |
| 1000 to 10000 | – | Cc1ccccc1N1CCN(c2ccc(C(=O)NCCCN3CCCC3=O)cc2NC(=O)c2sccc2Br)CC1 [Compound 4] |
| 1000 to 10000 | – | Cc1ccccc1N1CCN(c2ccc(C(=O)NCCCN3CCCC3=O)cc2NC(=O)c2occc2Br)CC1 [Compound 7] |
| 100 to 1000 | – | Cc1ccccc1N1CCN(c2ccc(C(=O)N[C@@H](C)c3ccccc3)cc2NC(=O)c2ccco2)CC1 [Compound 11, furan-2-carboxylic acid [5-((S)-1-phenyl-ethylcarbamoyl)-2-(4-o-tolyl-piperazin-1-yl)-phenyl]-amide] |
| 100 to 1000 | – | Cc1cc(C(=O)Nc2cc(C(=O)NCCCN3CCCC3=O)ccc2N2CCN(c3ccccc3C)CC2)c(C)o1 [Compound 14] |
| 100 to 1000 | – | COc1ccc(CNC(=O)c2ccc(N3CCN(c4ccccc4C)CC3)c(NC(=O)c3ccco3)c2)cc1OC [Compound 17] |
| 1000 to 10000 | – | Cc1ccccc1N1CCN(c2ccc(C(=O)NCCCN3CCCC3=O)cc2NC(=O)c2ccccc2Cl)CC1 [Compound 19] |
| 100 to 1000 | – | Cc1ccccc1N1CCN(c2ccc(C(=O)NCCCN3CCCC3=O)cc2NC(=O)c2cccs2)CC1 [Compound 20] |
| 1000 to 10000 | – | Cc1ccccc1N1CCN(c2ccc(C(=O)N[C@@H]3CCCNC3)cc2NC(=O)c2ccco2)CC1 [Compound 22] |
| 1000 to 10000 | – | Cc1ccccc1N1CCN(c2ccc(C(=O)NCCCN3CCCC3=O)cc2NC(=O)c2ccc[nH]2)CC1 [Compound 24] |
| 1000 to 10000 | – | Cc1ccccc1N1CCN(c2ccc(C(=O)NCCCN3CCCC3=O)cc2NC(=O)c2cnc(Br)s2)CC1 [Compound 25] |
| 1000 to 10000 | – | Cc1ccccc1N1CCN(c2ccc(C(=O)NCCCN3CCCC3=O)cc2NC(=O)CC(C)C)CC1 [Compound 26] |
| 1000 to 10000 | – | Cc1ccccc1N1CCN(c2ccc(C(=O)NCCCN3CCCC3=O)cc2NC(=O)c2cccc(Cl)c2)CC1 [Compound 28] |
| 100 to 1000 | – | Cc1ccccc1N1CCN(c2ccc(C(=O)NCCCN3CCCC3=O)cc2NC(=O)c2ccc(Cl)cc2)CC1 [Compound 29] |
| 1000 to 10000 | – | Cc1ccccc1N1CCN(c2ccc(C(=O)NCCCN3CCCC3=O)cc2NC(=O)c2cccc(F)c2)CC1 [Compound 30] |
| 1000 to 10000 | – | Cc1ccccc1N1CCN(c2ccc(C(=O)NCCCN3CCCC3=O)cc2NC(=O)c2ccc(C#N)cc2)CC1 [Compound 33] |
| 1000 to 10000 | – | Cc1cccc(C(=O)Nc2cc(C(=O)NCCCN3CCCC3=O)ccc2N2CCN(c3ccccc3C)CC2)c1 [Compound 34] |
| 1000 to 10000 | – | COc1ccccc1C(=O)Nc1cc(C(=O)NCCCN2CCCC2=O)ccc1N1CCN(c2ccccc2C)CC1 [Compound 41] |
| 100 to 1000 | – | COc1ccc(C(=O)Nc2cc(C(=O)NCCCN3CCCC3=O)ccc2N2CCN(c3ccccc3C)CC2)cc1 [Compound 42] |
| 1000 to 10000 | – | CCNC(=O)N1CCC[C@@H](NC(=O)c2ccc(N3CCN(c4ccccc4C)CC3)c(NC(=O)c3ccco3)c2)C1 [Compound 48, (R)-3-[3-[(furan-2-carbonyl)-amino]-4-(4-o-tolyl-piperazin-1-yl)-benzoylamino]-piperidine-1-carboxylic acid ethylamide] |
| 100 to 1000 | – | Cc1ccccc1N1CCN(c2ccc(C(=O)NC3CCN(C(=O)OC(C)(C)C)CC3)cc2NC(=O)c2ccco2)CC1 [Compound 49, 4-[3-[(Furan-2-carbonyl)-amino]-4-(4-o-tolyl-piperazin-1-yl)-benzoylamino]-piperidine-1-carboxylic acid tert-butyl ester] |
| 1000 to 10000 | – | CNC[C@@H](NC(=O)c1ccc(N2CCN(c3ccccc3C)CC2)c(NC(=O)c2ccco2)c1)c1ccc(Cl)cc1 [Compound 55, Furan-2-carboxylic acid [5-[(S)-1-(4-chloro-phenyl)-2-methylamino-ethylcarbamoyl]-2-(4-o-tolyl-piperazin-1-yl)-phenyl]-amide] |
| 1000 to 10000 | – | CC(=O)N1CCC(NC(=O)c2ccc(N3CCN(c4ccccc4C)CC3)c(NC(=O)c3ccco3)c2)CC1 [Compound 56, Furan-2-carboxylic acid [5-(1-acetyl-piperidin-4-ylcarbamoyl)-2-(4-o-tolyl-piperazin-1-yl)-phenyl]-amide] |
| 1000 to 10000 | – | CC(=O)N(C)C[C@@H](NC(=O)c1ccc(N2CCN(c3ccccc3C)CC2)c(NC(=O)c2ccco2)c1)c1ccc(Cl)cc1 [Compound 57] |
| 1000 to 10000 | – | COc1ccc(C(=O)Nc2cc(C(=O)NCCCN3CCCC3=O)ccc2N2CCN(c3ccccc3C)CC2)c(OC)c1 [Compound 59] |
| 1000 to 10000 | – | CCOc1cc(CCNC(=O)c2ccc(N3CCN(c4ccccc4C)CC3)c(NC(=O)c3ccco3)c2)ccc1OC [Compound 65] |
| 100 to 1000 | – | Cc1ccccc1N1CCN(c2ccc(C(=O)N[C@H](CO)c3ccccc3)cc2NC(=O)c2ccco2)CC1 [Compound 67, Furan-2-carboxylic acid [5-((S)-2-hydroxy-1-phenyl-ethylcarbamoyl)-2-(4-o-tolyl-piperazin-1-yl)-phenyl]-amide] |
| 100 to 1000 | – | Cc1ccccc1N1CCN(c2ccc(C(=O)NCCCN3CCCC3=O)cc2NC(=O)c2ccsc2)CC1 [Compound 69] |
| 100 to 1000 | – | Cc1ccccc1N1CCN(c2ccc(C(=O)NCCCN3CCCC3=O)cc2NC(=O)c2ncoc2C)CC1 [Compound 78] |
